pEC50: −log10 of the molar value. “And” between values parts separate entries of the source, which are not always exact repeats. Equal entries are not always repeated. “Also recorded” adds a separate entry of the source. Where two headings read alike, the source gives them in different places.
Key:
[1] = test system: mouse cauda epididymal sperm; assay: Mouse sperm motility in HTF with compound, measured by CASA; assay type: cell-based; conditions: for inhibition of sperm motility in vitro: HTF with 1 mM analog, 5 to 60 min; for development of sperm motility: incubated 30 min and 60 min
Protocol: Sperm motility requires energy, the sources of which include both glycolysis and mitochondrial activity. The effects of four glycolytic inhibitors (3-bromopyruvate, 2-deoxyglucose, lonidamin and oxythiamine) on sperm motility were evaluated. First mouse cauda epididymal sperm were collected into PBS, HTF (sperm-activating solution), HTF supplemented with 1 mM 3-Bromopyruvate, HTF containing 1 mM 2-Deoxyglucose, HTF with 0.5 mM Lonidamin and HTF with 1 MM Oxythiamine. Epididymal sperm can gain partial motility in PBS, but will never develop hyperactivated motility, which is required for sperm to be competent to fertilize eggs. On the other hand, when epididymal sperm are incubated in human tubular fluid (HTF) medium, which contains all of the sperm motility-activating factors, sperm will quickly develop hyperactivated motility and the motility peaks within 30 minutes and can last at least for several hours at 37° C. In the present studies, mouse cauda epididymal sperm were incubated in PBS, HTF and HTF supplemented with the 4 compounds for 30 min and 60 min. Sperm motility was then measured by Computer-Assisted Sperm Analysis (CASA). […] These studies indicate that in the presence of 3BP (at 1 mM), sperm cannot develop motility.
To determine how quickly 3BP could immobilize sperm, mouse cauda epididymal sperm were collected into HTF and HTF supplemented with 1 mM 3BP, respectively. Sperm were then incubated at 37° C. for 5, 10, 20 30, 40 and 60 min, respectively. Sperm motility was completely lost within 10 minutes at 1 mM concentration and the inhibitory effect appeared to be permanent (see FIG. 3).
Given that 3BP could immobilize sperm, it was determined if analogs of 3BP could have the same effect. Four 3BP analogs, including methyl-pyruvate, ethyl-pyruvate, isoamyl-pyruvate and propyl-pyruvate, were tested to determine if they also had the inhibitory effect on sperm in vitro. In the first study, the effects of methyl-pyruvate and ethyl-pyruvate on sperm motility were evaluated (FIG. 4A). Mouse epididymal sperm were collected into HTF (control), HTF containing 1 mM Methyl-pyruvate and HTF with 1 mM ethyl-pyruvate, respectively. After incubation at 37° C. for 5, 10, 20, 30, 40 and 60 min, sperm motility was measured using CASA.

[2] = test system: mouse cauda epididymal sperm; assay: Permanence of sperm immobilization: exposure in PBS, wash, activation in HTF, CASA; assay type: cell-based; conditions: for motility development after short exposure and washout / motility developed in HTF after exposure and washing: 37° C.; for motility development after short exposure and washout: 5 min, washed, HTF 30 and 60 minutes; for motility developed in HTF after exposure and washing: PBS with 1 mM 3-BrPA, 1-30 min, washed twice, HTF 30 min and 60 min
Protocol: Studies were then performed to determine if sperm-immobilizing effects of 3BP were permanent or transient. Mouse cauda epididymal sperm were collected into PBS (control), PBS containing 1 mM 3BP, PBS containing 1 mM deoxyglucose, PBS with 0.5 mM lonidamine and PBS with 1 mM oxythiamine, followed by incubation at 37° C. for 5 min. The compounds were then washed away with PBS and then the treated sperm were incubated in HTF medium for 30 minutes and 60 minutes, followed by measurement of sperm motility by CASA. […] Again, 3BP had the strongest effects. […] These studies indicate that the sperm motility-abolishing effect of 3BP was permanent. Further, once exposed, sperm will never be able to develop motility.
To determine if sperm exposed to 3BP could still be activated in HTF, mouse sperm from the cauda epididymis were collected into PBS (control) and PBS containing 1 mM 3-BrPA, respectively. Then sperm were incubated in 37° C. for 1, 5, 10, 20 and 30 min, respectively. To remove 3BP, the sperm were washed twice with PBS. The sperm were then transferred to the HTF medium and activated for 30 min (FIG. 5, A) and 60 min (FIG. 5, B), followed by measurement the sperm motility using CASA.

sperm ATP production = assay: Sperm ATP content, Luciferase Bioluminescence Assay kit; assay type: cell-based; conditions: 1 mM 3BP, during 60 min activation by HTF
Protocol: The ATP production in sperm was measured with or without exposure to 1 mM 3BP during 60 min activation by HTF. Sperm ATP contents were measured using a Luciferase Bioluminescence Assay kit (FIG. 13). […] However, such a drastic suppression cannot be explained solely by its anti-glycolytic property because glycolysis provides only partial energy sperm motility requires.

[3] = test system: vagina and uterus in female mice; assay: Histology of vagina and uterus after daily intravaginal application; assay type: in vivo; conditions: daily intravaginal 200-400 ul lubricant containing 20 mM 3BP, 3 months
Protocol: (§1) Whether 3BP could block mitochondrial activity in sperm was further examined because mitochondria also contribute energy production in sperm (FIG. 14). […] In control sperm trajectory tracking assays, the cauda epididymal sperm were collected into the HTF medium and incubated for 1, 5, 10 and 20 min (FIG. 15). In 3BP-treated sperm trajectory tracking assays, the cauda epididymal sperm were collected HTF+1 mM 3-BrPA and incubated for 1, 5, 10 and 20 min (FIG. 15). In control human sperm trajectory tracking assays, the human “swim-up” sperm were incubated HTF for 1, 5, 10, and 20 minutes (FIG. 16). In 3BP-treated human sperm movie clips, the human “swim-up” sperm were incubated in HTF+1 mM 3-BrPA for 1, 5, 10 and 20 minutes (FIG. 16). Further, the histology of the vagina and uterus in female mice that received daily intravaginal application of 3BP (200-400 ul lubricant containing 20 mM 3BP) for 3 months was accessed.

[4] = test system: sperm mitochondrial membrane potential; assay: Sperm mitochondrial membrane potential, JC-1 assays; assay type: cell-based; conditions: 3BP 1 mM
Protocol: as §1

[5] = test system: mouse cauda epididymal sperm; assay: Mouse sperm motility in HTF with compound, measured by CASA; assay type: cell-based; conditions: 1 mM 3BP, activated mouse sperm (HTF 30 minutes, 37° C.)
human semen = assay: Sperm motility in liquidified human semen with 3BP; assay type: cell-based; conditions: 1 mM 3BP added directly to liquidified semen, 37° C.
Protocol: To evaluate the effect of 3BP on sperm motility in human semen, human semen was liquidified under room temperature and 3BP was directly added into the liquidified semen at a concentration of 1 mM followed by incubation at 37° C. for 1, 5, 10, 20 and 30 minutes (FIGS. 7 and 8). These studies indicate that 3BP can completely abolish human sperm motility within 5 minutes of contact.

mouse epididymal sperm = assay: EC50 and EC100 for immobilizing mouse sperm within 20 seconds of contact, CASA; assay type: cell-based
Protocol: (§2) To determine at what concentrations 3BP can block the motility of 50% and 100% of the total motile sperm, mouse epididymal sperm were collected into PBS (pH 7.5) and then transferred to pre-warmed (37° C.) HTF medium containing serial dilutions of 3BP (pH 7.5) at concentrations ranging from 10 to 130 mM with a 10 mM increment. Motility was measured using CASA upon 20 seconds of contact with 3BP. […] Therefore, the 3BP EC50 is ˜40˜50 mM and EC100 is ˜100 mM for mouse epididymal sperm at pH 7.5 (FIG. 9). Similarly, the EC50 and EC100 of 3BP in immobilizing human sperm were determined. Human “swim-up” sperm were added to HTF containing 3BP at increasing concentrations ranging from 100 mM to 210 mM at pH 7.5. Sperm motility was measured upon 20 seconds of contact using CASA. […] However, the vaginal environment tends to be acidic (˜pH 5.0) and the effectiveness of 3BP in immobilizing sperm was further evaluated when pH was set at ˜5.0 (FIGS. 10 and 12).

human "swim-up" sperm [6] = assay: Motility of human swim-up sperm exposed to 3BP, CASA; assay type: cell-based; conditions: 1 mM 3BP
Protocol: In normal men in their reproductive ages, ˜30-40% of sperm in human ejaculates are immotile or display weak motility. A ‘swim-up” procedure allows motile sperm to be enriched. To see the potential of 3BP in suppressing sperm motility, the swim-up procedure was first performed to allow the collection of motile sperm and then the motile human sperm were exposed to 3BP to determine if their motility could be abolished. The human semen was left at room temperature for 30 minutes for liquidification and then 2˜3 ml pre-warmed HTF medium were added followed by centrifugation at 1,500 rpm for 5 min. The sperm pellets were resuspended in 1 ml pre-warmed HTF medium and then incubated at 37° C. in anincubator for 60 min. Motile sperm will “swim up” and stay in the upper portion of the medium, in which motile sperm are enriched in. The “swim-up” sperm were collected, 3BP added at a concentration of 1 mM, and the sperm were incubated for 1, 5, 10, 20 and 30 min at 37° C., respectively. Sperm motility was then measured using CASA (FIG. 6).

human "swim-up" sperm [7] = assay: EC50 and EC100 for immobilizing human sperm within 20 seconds of contact, CASA; assay type: cell-based; conditions: for pEC50: read-out: EC50 (50% of motile sperm immobilized within 20 seconds of contact)
Protocol: as §2

CCOC(=O)C(C)=O [ethyl-pyruvate]
inhibition of sperm motility in vitro ([1]; 37° C.): None of the treatments resulted in inhibition of sperm motility
inhibition of sperm motility in vitro ([1]; 37° C., listed as ethyl pyruvate): no effect on sperm motility

O=C(O)c1nn(Cc2ccc(Cl)cc2Cl)c2ccccc12 [lonidamin, reference compound]
motility development after short exposure and washout ([2]; PBS with 0.5 mM lonidamine): will permanently impair motility development
development of sperm motility ([1]; HTF with 0.5 mM Lonidamin): appeared to inhibit the development of sperm motility

O=CC[C@@H](O)[C@H](O)[C@H](O)CO [2-deoxyglucose, reference compound]
motility development after short exposure and washout ([2]; PBS with 1 mM compound): will permanently impair motility development
development of sperm motility ([1]; HTF with 1 mM compound): appeared to inhibit the development of sperm motility

O=C(O)C(=O)CBr [3BP, 3-bromo-2-oxopropanoic acid]
sperm ATP production (sperm ATP production): can effectively block sperm ATP production
histology of the vagina and uterus [3]: no significant changes in the histology; also recorded: No discernible pathological changes were observed
exposure time to permanent immobilization with complete loss of motility ([2]; 1 mM 3BP, murine non-activated sperm collected from the epididymis into physiological saline): less than 1 minute
motility developed in HTF after exposure and washing [2]: irreversible
motility developed in HTF after exposure and washing ([2]; listed as 3-BrPA): No motility was developed
motility development after short exposure and washout ([2]; PBS with 1 mM compound): permanent; also recorded: could not develop motility
sperm mitochondrial membrane potential [4]: inhibition of sperm mitochondrial membrane potential; also recorded: could inhibit the mitochondrial membrane potential
exposure time to permanent immobilization with complete loss of motility [5]: less than 1 minute
time to completely abolish human sperm motility (human semen): ≤ 5 min
EC100 (100% of motile sperm immobilized within 20 seconds of contact) (mouse epididymal sperm; pH 4.8): ~17 mM
pEC50 (mouse epididymal sperm; pH 4.8, read-out: EC50 (50% of motile sperm immobilized within 20 seconds of contact)): ~2.30
EC100 (100% of motile sperm immobilized within 20 seconds of contact) (mouse epididymal sperm; pH 7.5): ~100 mM
pEC50 (mouse epididymal sperm; pH 7.5, read-out: EC50 (50% of motile sperm immobilized within 20 seconds of contact)): 1.30 to 1.40
time to complete loss of sperm motility ([1]; HTF with 1 mM 3BP, 37° C.): ≤ 10 min
development of sperm motility ([1]; HTF with 1 mM compound): almost completely blocked the development of sperm motility
time to abolish motility of motile human sperm (human "swim-up" sperm [6]; 37° C., swim-up sperm in HTF): 1 to 5 min
exposure time to permanent immobilization with complete loss of motility (human "swim-up" sperm [6]; activated human sperm (HTF 30 minutes, 37° C.)): less than 1 minute
pEC50 (human "swim-up" sperm [7]; Homo sapiens, Sperm, pH 5, human sperm, pH 5.0): 1.85
EC100 (100% of motile sperm immobilized within 20 seconds of contact) (human "swim-up" sperm [7]; human sperm, pH 5.0): 23 mM and ~24 mM
pEC50 (human "swim-up" sperm [7]; human sperm, pH 5.0): ~1.89
EC100 (100% of motile sperm immobilized within 20 seconds of contact) (human "swim-up" sperm [7]; human sperm, pH 7.5): ~200 mM

CC(=O)C(=O)OCCC(C)C [isoamyl-pyruvate]
inhibition of sperm motility in vitro ([1]; 37° C.): no effect on sperm motility

Cc1ncc(C[n+]2csc(CCO)c2C)c(=O)[nH]1 [oxythiamine, reference compound]
motility development after short exposure and washout ([2]; PBS with 1 mM compound): will permanently impair motility development
development of sperm motility ([1]; HTF with 1 mM compound): appeared to inhibit the development of sperm motility

CCCOC(=O)C(C)=O [propyl-pyruvate]
inhibition of sperm motility in vitro ([1]; 37° C.): no effect on sperm motility
